Several values for one entry are separate records, joined by “and”; a condition that tells them apart may be missing. Equal entries are not always repeated. Numbers after ± are expanded uncertainties.
Test: cn = amount concentration of the nth substance listed, in mol/dm3
Details: 101 kPa, Liquid, c1 = 2

Row | SMILES | mass density (298.15 K) | speed of sound (298.15 K) | mass density (303.15 K) | speed of sound (303.15 K) | mass density (308.15 K) | speed of sound (308.15 K) | mass density (313.15 K) | speed of sound (313.15 K) | mass density (318.15 K) | speed of sound (318.15 K) | mass density (323.15 K) | speed of sound (323.15 K)
1 | [Cl-].[K+] [potassium chloride] + O | 1089.1 ± 1.7 kg/m3 | 1595.2 ± 3.3 m/s | 1087.5 ± 1.8 kg/m3 | 1605.9 ± 3.3 m/s | 1085.6 ± 1.9 kg/m3 | 1610.2 ± 3.3 m/s | 1083.4 ± 1.9 kg/m3 | 1616.4 ± 3.4 m/s | 1080.9 ± 2 kg/m3 | 1621.4 ± 3.4 m/s | 1078.3 ± 2.1 kg/m3 | 1626.5 ± 3.4 m/s
2 | O=[N+]([O-])[O-].[K+] [potassium nitrate] + O | 1122.9 ± 1.8 kg/m3 | 1562 ± 3.3 m/s | 1120.6 ± 1.9 kg/m3 | 1569.4 ± 3.3 m/s | 1118 ± 1.9 kg/m3 | 1575.8 ± 3.3 m/s and 1575 ± 3.3 m/s | 1115 ± 2 kg/m3 | 1580 ± 3.3 m/s | 1111.8 ± 2.1 kg/m3 | 1584.6 ± 3.3 m/s and 1584.5 ± 3.3 m/s | 1108.2 ± 2.1 kg/m3 | 1588.9 ± 3.3 m/s and 1588.8 ± 3.3 m/s

From the NIST ThermoML archive (doi:10.1007/s10765-008-0514-x)
